Tests used:
[1] = system: partially purified human histone deacetylase; assay: Activity of partially purified human histone deacetylase ([3H]acetyl histone assay); type: biochemical; settings: for Effect on histone deacetylase activity (in words): summary of Table 5
Procedure: Effect on Activity of Partially Purified Human Histone Deacetylase
The partial purification of human histone deacetylase, the preparation of [^3H] acetyl histones, and the assay for histone deacetylase activity were basically performed according to the method as proposed by Yoshida et al. as follows.
Partial Purification of Human Histone Deacetylase—The human histone deacetylase was partially purified from human T cell leukemia Jurkat cells. Jurkat cells (5×10^8cells) were suspended in 40 ml of the HDA buffer consisting of 15 mM potassium phosphate, pH 7.5, 5% glycerol and 0.2 mM EDTA. After homogenization, nuclei were collected by centrifugation (35,000 ×g, 10 min) and homogenized in 20 ml of the same buffer supplemented with 1 M (NH4)2SO4. The viscous homogenate was sonicated and clarified by centrifugation (35,000 ×g, 10 min), and the deacetylase was precipitated by raising the concentration of (NH4)2SO4 to 3.5 M. The precipitated protein was dissolved in 10 ml of the HDA buffer and dialyzed against 4 liters of the same buffer. The dialyzate was then loaded onto a DEAE-cellulose (Whatman DE52) column (25×85 mm) equilibrated with the same buffer and eluted with a linear gradient (0-0.6 M) of NaCl (300 ml). A single peak fraction of histone deacetylase activity was eluted between 0.3 and 0.4 M NaCl.
Preparation of [^3H] Acetyl Histones—To obtain [^3H]acetyl-labeled histones as the substrate for the histone deacetylase assay, 1×10^8 cells of Jurkat in 20 ml of RPMI-1640 medium supplemented with 10% FBS, penicillin (50 units/ml) and streptomycin (50 μg/ml) were incubated with 300 MBq [^3H] sodium acetate in the presence of […] sodium butyrate for 30 min in 5% CO2-95% air atmosphere at 37° C. in a 75 cm2 flask, harvested into a centrifuge tube (50 ml), collected by centrifugation at 1000 rpm for 10 min, and washed once with phosphate-buffered saline. The washed cells were suspended in 15 ml of ice-cold lysis buffer (10 mM Tris-HCl, 50 mM sodium bisulfite, 1% Triton X-100, 10 mM MgCl2, 8.6% sucrose, pH 6.5). After Dounce homogenization (30 stroke), the nuclei were collected by centrifugation at 1000 rpm for 10 min, washed three times with 15 ml of the lysis buffer, and once with 15 ml of ice-old washing buffer (10 mM Tris-HCl, 13 mM EDTA, pH 7.4) successively. The pellet was suspended in 6 ml of ice-cold water using a mixer, and […] of H2SO4 was added to the suspension to give a concentration of 0.4 N. After incubation at 4° C. for 1 hour, the suspension was centrifuged for 5 min at 15,000 rpm, and the supernatant was taken and mixed with 60 ml of acetone. After overnight incubation at −20° C., the coagulated material was collected by microcentrifugation, air-dried, and stored at […].
Assay for Histone Deacetylase Activity—For the standard assay, 10 μl of [^3H]acetyl-labeled histones was added to 90 μl of the enzyme fraction, and the mixture was incubated at 25° C. for 30 min. The reaction was stopped by addition of 10 μl of HCl. The released [^3H]acetic acid was extracted with 1 ml of ethyl acetate, and 0.9 ml of the solvent layer was taken into 10 ml of toluene scintillation solution for determination of radioactivity.

[2] = Solubility in solvents (physico-chemical properties); type: physicochemical; settings: solvents in which soluble
[3] = system: murine lymphocyte blastogenesis induced by anti-CD3 antibody (splenic cells of Balb/c mice); assay: Lymphocyte blastogenesis test (MTT dye reduction); type: cell-based; settings: for Inhibition (%): 72 hours
Procedure: Effect on Lymphocyte Blastogenic Response
The lymphocyte blastogenesis test was performed in microtiter plates with each well containing 1×10^5 splenic cells of Balb/c mice in 0.1 ml RPMI-1640 medium supplemented with 10% fetal bovine serum (FBS), […] 2-mercaptoethanol, penicillin (100 units/ml) and streptomycin (100 μg/ml), to which anti-CD3 antibody (2C11) (1 μg/ml) was added. The cells were incubated at 37° C. in a humidified atmosphere of 5% CO2 for 72 hours. After the culture period, suppressive activities of the test samples in lymphocyte blastogenesis were quantified by an MTT [3-(4,5-dimethylthiazol-2-yl)-2,5-diphenyl-2H-tetrazolium bromide (MTT)] dye reduction assay.
WF27082 B was dissolved in methanol and further diluted in RPMI-1640 medium and added to the culture to give final concentrations of 50 ng/ml or less. FR235220 was dissolved in methanol and further diluted in RPMI-1640 medium and added to the culture to give final concentrations of 500 ng/ml or less. The results are shown in Table 2 and Table 3, respectively.

With CCC1(C)NC(=O)C(CCCCCC(=O)C(C)O)NC(=O)C2CCCN2C(=O)C(Cc2ccccc2)NC1=O (centres unmarked) [WF27082 E] as the compound, how does the “Inhibition (%)” value ([1]; 1 ng/ml) read?
Its value is 11.1%.

And the “Inhibition (%)” value ([1]; 10 ng/ml)?
The value was 57.6%.

And the “Inhibition (%)” value ([1]; 100 ng/ml)?
The value was 88.5%.

And the “Inhibition (%)” value ([1]; 1000 ng/ml)?
The value was 104.9%.

And the “Effect on histone deacetylase activity (in words)” value [1]?
Its value is “potently inhibited”.

And the “Solubility: Soluble” value [2]?
The value was “methanol, chloroform, ethyl acetate, dimethyl sulfoxide”.

What does the source list for CC(O)C(=O)CCCCCC1NC(=O)C2CCCN2C(=O)C(Cc2ccccc2)NC(=O)C(C)(C)NC1=O (centres unmarked) [FR235220]?
Inhibition (%) ([1]; 1 ng/ml): −13.1%; Inhibition (%) ([1]; 10 ng/ml): 33.7%; Inhibition (%) ([1]; 100 ng/ml): 74.6%; Inhibition (%) ([1]; 1000 ng/ml): 94.6%; Effect on histone deacetylase activity (in words) [1]: potently inhibited; Inhibition (%) ([3]; 4 ng/ml): −23.4%; Inhibition (%) ([3]; 8 ng/ml): −1.3%; Inhibition (%) ([3]; 16 ng/ml): 45.1%; Inhibition (%) ([3]; 31 ng/ml): 106.0%; Inhibition (%) ([3]; 63 ng/ml): 125.3%; Inhibition (%) ([3]; 125 ng/ml): 127.2%; Inhibition (%) ([3]; 250 ng/ml): 126.0%; Inhibition (%) ([3]; 500 ng/ml): 126.0%; Effect on murine lymphocyte blastogenesis (in words) ([3]; summary of Tables 2 and 3): suppressed murine lymphocyte blastogenesis induced by anti-CD3 antibody in a dose-dependent manner

Which “Inhibition (%)” value ([1]; 1 ng/ml) does the source give for CC1CC2C(=O)NC(CCCCCC(=O)C(C)O)C(=O)NC(C)(C)C(=O)NC(Cc3ccccc3)C(=O)N2C1 (centres unmarked) [WF27082 F] here?
The value was 11.4%.

And the “Inhibition (%)” value ([1]; 10 ng/ml)?
The value was 36.5%.

And the “Inhibition (%)” value ([1]; 100 ng/ml)?
The value was 74.1%.

And the “Inhibition (%)” value ([1]; 1000 ng/ml)?
The value was 91.7%.

And the “Effect on histone deacetylase activity (in words)” value [1]?
Its value is “potently inhibited”.

What about the “Solubility: Soluble” value [2] of the same compound?
Its value is “methanol, chloroform, ethyl acetate, dimethyl sulfoxide”.

Source: patent US6656905B1, “Cyclic tetrapeptide compound and use thereof” (Fujisawa Pharmaceutical Co., Ltd., priority 1998, dated 2003)
